Assay results from patent publication US20090111741A1, “METHOD FOR TREATING AND/OR […] SEEKING BEHAVIOR” (priority 2007, published 2009).
Like-named read-outs stand apart in the source and are kept apart here. Square brackets hold non-standard residues; d marks the D form. Peptide text beside a SMILES is read from it.

Legend:
[1] = metabolic stability in rat plasma; type: in vitro ADME; conditions: read-out: Rat plasma t1/2
From the text: The metabolic stability of the peptides depends on the modifications to the peptides. […] As expected, peptides without N-terminal modification were rapidly metabolized (Table 2), presumably by aminopeptidases. […] Homogenization is likely to rupture cell membranes, releasing intracellular proteases that could metabolize these peptides, so that this system may not accurately reflect the metabolism that occurs in vivo. Endopeptidases capable of metabolizing Dyn A are also present on red blood cells, and can rapidly metabolize some Dyn A-(1-11) amide analogs, e.g. arodyn.

[2] = BBMEC permeability (in-vitro model of the blood-brain barrier); conditions: for Papp: pH 7.4
[3] = rat, blood
[4] = rat, brain homogenate, half life (t1/2) in rat brain homogenate
[5] = target: T1, kappa-opioid receptor (KOR) (Mus musculus, UniProt P33534); conditions: animal models, after a single dose; cited from earlier work
T1 construct: from tissue; host or cells: living C57B1/6J mice (central and peripheral KOR)

[6] = system: kappa-opioid receptor; conditions: in vivo; cited from earlier work
[7] = target: kappa-opioid receptor (KOR) (Rattus norvegicus, UniProt P34975); experiment: binding affinity (Ki) at KOR
[8] = target: KOR (Rattus norvegicus, UniProt P34975); experiment: antagonist activity (adenylyl cyclase assay); type: cell-based
[9] = observation of side effects in mice; conditions: mouse, in vivo
From the text: The ability of zyklophin to cross the BBB allows for any type of systemic administration, such as subcutaneous administration. Accordingly, zyklophin can be administered in a manner other than, but including, intercerebroventricular administration. Moreover, the ability of zyklophin to cross the BBB allows for a myriad of formulation opportunities, where the formulation can be prepared for a suitable mode or route of administration. As a consequence of having high selectivity for KOR and BBB permeability, zyklophin is a favorable drug candidate and as a lead drug for derivatizations and analoging. […] The mice data is discussed in more detail herein and in the incorporated references.

[10] = in vitro; conditions: rat, brain homogenate, half life (t1/2) in rat brain homogenate

T1 sequence (P33534 whole entry): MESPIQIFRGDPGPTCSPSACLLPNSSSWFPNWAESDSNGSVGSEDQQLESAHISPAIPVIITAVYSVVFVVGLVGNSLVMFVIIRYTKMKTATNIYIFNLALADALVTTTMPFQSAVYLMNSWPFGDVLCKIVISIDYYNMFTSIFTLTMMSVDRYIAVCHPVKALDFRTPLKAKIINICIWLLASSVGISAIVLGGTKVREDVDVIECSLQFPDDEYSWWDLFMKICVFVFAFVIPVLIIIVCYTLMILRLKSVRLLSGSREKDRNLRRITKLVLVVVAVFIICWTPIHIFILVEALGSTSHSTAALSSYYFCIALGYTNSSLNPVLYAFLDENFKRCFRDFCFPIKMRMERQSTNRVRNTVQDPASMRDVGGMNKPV
Chain of KOR (P34975 whole entry): as the sequence (P33534 whole entry) above, with D11E, S17A, S51P, A308V counted along it
Chain of kappa-opioid receptor (KOR) (Rattus norvegicus, UniProt P34975) (P34975 whole entry): as the sequence (P33534 whole entry) above, with D11E, S17A, S51P, A308V counted along it

| Compound | half-life [1] | efflux ratio [2] | Papp [2] | duration of action of KOR antagonism (literature) [5] | other results |
| --- | --- | --- | --- | --- | --- |
| CC[C@H](C)[C@H](NC(=O)[C@H](CCCNC(=N)N)NC(=O)[C@H](CCCNC(=N)N)NC(=O)[C@H](CC(C)C)NC(=O)[C@H](Cc1ccccc1)NC(=O)CNC(=O)CNC(=O)[C@H](Cc1ccc(O)cc1)NC(C)=O)C(=O)N[C@@H](CCCNC(=N)N)C(=O)N1CCC[C@H]1C(=O)N[C@@H](CCCCN)C(N)=O [Ac-Dyn A-(1-11)NH2] | 1.85 ± 0.283 h | 2.4 | 7.1 ± 2.3 ×10⁻⁶ cm/s | – | – |
| CC(=O)N[C@@H](Cc1ccccc1)C(=O)N[C@@H](Cc1ccccc1)C(=O)N[C@@H](Cc1ccccc1)C(=O)N[C@@H](CCCNC(=N)N)C(=O)N[C@@H](CC(C)C)C(=O)N[C@@H](CCCNC(=N)N)C(=O)N[C@@H](CCCNC(=N)N)C(=O)N[C@H](C)C(=O)N[C@@H](CCCNC(=N)N)C(=O)N1CCC[C@H]1C(=O)N[C@@H](CCCCN)C(N)=O [Arodyn, Ac[Phe^1,2,3,Arg^4,D-Ala^8]Dyn A-(1-11) amide] (Ac-FFFRLRR[dA]RPK-NH2) | 1.73 ± 0.0667 h | 1.6 | 7.6 ± 3 ×10⁻⁶ cm/s | – | half-life [3]: < 2 min; half-life [4]: 0.167 to 0.183 h |
| CC[C@H](C)[C@H](NC(=O)[C@H](CCCN=C(N)N)NC(=O)[C@H](CCCN=C(N)N)NC(=O)[C@H](CC(C)C)NC(=O)[C@H](Cc1ccccc1)NC(=O)CNC(=O)CNC(=O)[C@@H](N)Cc1ccc(O)cc1)C(=O)N[C@@H](CCCN=C(N)N)C(=O)N1CCC[C@H]1C(=O)N[C@@H](CCCCN)C(N)=O [Dyn A-(1-11)NH2, Dynorphin A-(1-11) amide] | < 0.0333 h | 0.9 | 3.8 ± 1.3 ×10⁻⁶ cm/s | – | – |
| CC(C)[C@@H](CN1CC[C@@](C)(c2cccc(O)c2)[C@@H](C)C1)NC(=O)[C@H]1Cc2ccc(O)cc2CN1 [JDTic, (3R)-7-hydroxy-N-{(1S)-1-{[(3R,4R)-4-(3-hydroxyphenyl)-3,4-dimethyl-1-piperidinyl]methyl}-2-methylpropyl}-1,2,3,4-tetrahydro-3-isoquinolinecarbox-amide] | – | – | – | prolonged duration of action | effect on stress-induced reinstatement of cocaine seeking (literature) [6]: suppress stress-induced reinstatement of cocaine self-administration |
| Oc1ccc2c3c1O[C@H]1c4[nH]c5c(c4C[C@@]4(O)[C@@H](C2)N(CC2CC2)CC[C@]314)C[C@@]1(O)[C@H]2Cc3ccc(O)c4c3[C@@]1(CCN2CC1CC1)[C@H]5O4 [nor-binaltorphimine] | – | – | – | prolonged duration of action | – |
| N=C(N)NCCC[C@@H]1NC(=O)[C@H](CCCNC(=N)N)NC(=O)[C@H](NC(=O)[C@H](Cc2ccccc2)NC(=O)CNC(=O)CNC(=O)[C@H](Cc2ccc(O)cc2)NCc2ccccc2)CC(=O)NC[C@@H](C(=O)N[C@@H](CCCNC(=N)N)C(=O)N2CCC[C@H]2C(=O)N[C@@H](CCCCN)C(N)=O)NC1=O [zyklophin, [N-benzylTyr^1,cyclo(D-Asp^5,Dap^8)]Dyn A-(1-11) amide] | – | – | – | – | Ki [7]: 30 ± 2 nM; Kb [8]: 84 nM; side effects in mice [9]: no unwanted side affects have been observed; half-life [10]: 1.17 h |
